These are literature values, as cited in article PMC10341550, “Beta-Secretase 1 Recruits Amyloid-Beta Precursor Protein to ROCK2 Kinase, Resulting in Erroneous Phosphorylation and Beta-Amyloid Plaque Formation” (International Journal of Molecular Sciences, 2023).

Details in all cases: cited from earlier work
The subject of data set [1] is Aβ production in an AD mouse brain. The text has this:
Alzheimer’s disease is currently the leading cause of dementia, with no effective treatment. […] Although Aβ cannot account for all features of Alzheimer’s disease, reducing Aβ production or accumulation is a major therapeutic strategy to confront the disease. The accumulation of Aβ peptides in senile plaques is the consequence of pathological processing of APP. There are two major pathways of APP processing: a non-amyloidogenic pathway invo ...

The next data set concerns ROCK2.
The subject of the next data set is protein kinase CK2α. From the text: Despite decades of intensive research, there is no efficient drug to prevent or cure Alzheimer’s disease. […] During the processing of APP, its cleavage by BACE1 is the rate-limiting step [16]; therefore, the inhibition of BACE1 could be a trivial solution. The development of small molecular inhibitors against BACE1 was set back with a series of unwanted side effects. Previously, it was shown that pharmacological inhibition of ROCK2 activity diminishes sAPPβ pro ...

SMILES strings stand for the structures.

Turning to `CN(C)CCOc1cc(-c2cn[nH]c2)ccc1NC(=O)C1COc2ccccc2O1` (stereo not drawn) [SR3677], the Aβ production entry in data set [1] is listed as “diminished the production of Aβ in an AD mouse brain”.

Consider `CC(C)NC(=O)COc1cccc(-c2nc(Nc3ccc4[nH]ncc4c3)c3ccccc3n2)c1` [belumosudil], for which the “ROCK2 inhibition selectivity (in words)” value with ROCK2 is “highly selective”. The “inhibition of protein kinase CK2α (in words)” value in the data set on protein kinase CK2α was “inhibition of the protein kinase CK2α”.
